assay: Inhibition of TEAD in human tumour cells assessed as YAP1/TAZ-TEAD modulation incubated for 48 hrs by Bright-Glo luciferase assay; format: cell-based; conditions: Tumor Cell line

Compound | IC50
C=CC(=O)Nc1ccc2c(c1)cc(C)n2-c1ccc(C(F)(F)F)cc1 | 0.012 µM
C=CC(=O)Nc1ccc2c(ccn2Cc2ccc(-c3cccc(C(F)(F)F)c3)cc2)c1 | 0.02 µM
C=CC(=O)Nc1cc2ccn(Cc3cccc(C(F)(F)F)c3)c2cc1F | 0.018 µM

More lines, in order of falling IC50, values ahead:

IC50 | Compound
0.015 µM | C=CC(=O)Nc1ccc2c(c1)c(COC)cn2-c1ccc(C(F)(F)F)cc1
0.009 µM | C=CC(=O)Nc1ccc2c(c1)c(C)cn2-c1ccc(C(F)(F)F)cc1
0.008 µM | C=CC(=O)Nc1ccc2c(ccn2-c2ccc(C(F)(F)F)cc2)c1

Source: ChEMBL document CHEMBL5053558, “Novel Indole Compounds as TEAD Inhibitors for Treating Cancer” (ACS Med Chem Lett, 2021)
